# According to ChEMBL document CHEMBL3046894, “Synthesis and Herbicidal Activity of Pyrimidinyl Salicylic and Thiosalicylic Acids” (J Pestic Sci, 1996):
# Tests used:
# [1] = tested on: Echinochloa crus-galli; experiment: Pre-emergence herbicidal activity against Echinochloa crus-galli (barnyard grass) assessed as mortality at 6.3 g a.i/10 a; type: functional
# [2] = tested on: Ipomoea lacunosa; experiment: Post-emergence herbicidal activity against Ipomoea lacunosa assessed as mortality at 6.3 g a.i/10 a applied 11 days after germination as foliar spray; type: functional; settings: 264 h
# [3] = tested on: Abutilon theophrasti; experiment: Post-emergence herbicidal activity against Abutilon theophrasti (velvetleaf) assessed as mortality at 1.6 g a.i/10 a applied 11 days after germination as foliar spray; type: functional; settings: 264 h
# [4] = tested on: Abutilon theophrasti; experiment: Post-emergence herbicidal activity against Abutilon theophrasti (velvetleaf) assessed as mortality at 6.3 g a.i/10 a applied 11 days after germination as foliar spray; type: functional; settings: 264 h
# [5] = (§1) Pre-emergence phytotoxicity against Gossypium hirsutum (cotton) assessed as mortality at 6.3 g a.i/10 a; type: organism-based; settings: in vivo, 6.3 g a.i/10 a, read-out: Activity
# [6] = tested on: Gossypium hirsutum; experiment: Pre-emergence phytotoxicity against Gossypium hirsutum (cotton) assessed as mortality at 1.6 g a.i/10 a; type: organism-based; settings: in vivo, other
# [7] = Pre-emergence phytotoxicity against Glycine max (soybean) assessed as mortality at 1.6 g a.i/10 a; type: organism-based; settings: in vivo, 1.6 g a.i/10 a, read-out: Activity
# [8] = Pre-emergence phytotoxicity against Glycine max (soybean) assessed as mortality at 6.3 g a.i/10 a; type: organism-based; settings: in vivo, 6.3 g a.i/10 a, read-out: Activity
# [9] = (§2) Pre-emergence phytotoxicity against Zea mays (maize) assessed as mortality at 1.6 g a.i/10 a; type: organism-based; settings: in vivo, 1.6 g a.i/10 a, read-out: Activity
# [10] = tested on: Zea mays; experiment: Pre-emergence phytotoxicity against Zea mays (maize) assessed as mortality at 6.3 g a.i/10 a; type: organism-based; settings: in vivo, other
# [11] = tested on: Gossypium hirsutum; experiment: (§3) Post-emergence phytotoxicity against Gossypium hirsutum (cotton) assessed as mortality at 1.6 g a.i/10 a applied 11 days after germination as foliar spray; type: organism-based; settings: in vivo, other, 264 h
# [12] = (§4) Post-emergence phytotoxicity against Gossypium hirsutum (cotton) assessed as mortality at 6.3 g a.i/10 a applied 11 days after germination as foliar spray; type: organism-based; settings: in vivo, 6.3 g a.i/10 a
# [13] = tested on: Glycine max; experiment: Post-emergence phytotoxicity against Glycine max (soybean) assessed as mortality at 6.3 g a.i/10 a applied 11 days after germination as foliar spray; type: organism-based; settings: in vivo, other, 264 h
# [14] = tested on: Glycine max; experiment: Post-emergence phytotoxicity against Glycine max (soybean) assessed as mortality at 1.6 g a.i/10 a applied 11 days after germination as foliar spray; type: organism-based; settings: in vivo, other, 264 h
# [15] = tested on: Zea mays; experiment: Post-emergence phytotoxicity against Zea mays (maize) assessed as mortality at 1.6 g a.i/10 a applied 11 days after germination as foliar spray; type: organism-based; settings: in vivo, other, 264 h
# [16] = tested on: Echinochloa crus-galli; experiment: Post-emergence herbicidal activity against Echinochloa crus-galli (barnyard grass) assessed as mortality at 1.6 g a.i/10 a applied 11 days after germination as foliar spray; type: functional; settings: 264 h
# [17] = tested on: Echinochloa crus-galli; experiment: Post-emergence herbicidal activity against Echinochloa crus-galli (barnyard grass) assessed as mortality at 6.3 g a.i/10 a applied 11 days after germination as foliar spray; type: functional; settings: 264 h
# [18] = tested on: Xanthium strumarium; experiment: Pre-emergence herbicidal activity against Xanthium strumarium (cocklebur) assessed as mortality at 1.6 g a.i/10 a; type: functional
# [19] = tested on: Xanthium strumarium; experiment: Pre-emergence herbicidal activity against Xanthium strumarium (cocklebur) assessed as mortality at 6.3 g a.i/10 a; type: functional
# [20] = tested on: Ipomoea lacunosa; experiment: Pre-emergence herbicidal activity against Ipomoea lacunosa assessed as mortality at 1.6 g a.i/10 a; type: functional
# [21] = tested on: Ipomoea lacunosa; experiment: Pre-emergence herbicidal activity against Ipomoea lacunosa assessed as mortality at 6.3 g a.i/10 a; type: functional
# [22] = tested on: Abutilon theophrasti; experiment: Pre-emergence herbicidal activity against Abutilon theophrasti (velvetleaf) assessed as mortality at 1.6 g a.i/10 a; type: functional
# [23] = tested on: Abutilon theophrasti; experiment: Pre-emergence herbicidal activity against Abutilon theophrasti (velvetleaf) assessed as mortality at 6.3 g a.i/10 a; type: functional
# [24] = tested on: Echinochloa crus-galli; experiment: Pre-emergence herbicidal activity against Echinochloa crus-galli (barnyard grass) assessed as mortality at 1.6 g a.i/10 a; type: functional
# [25] = tested on: Ipomoea lacunosa; experiment: Post-emergence herbicidal activity against Ipomoea lacunosa assessed as mortality at 1.6 g a.i/10 a applied 11 days after germination as foliar spray; type: functional; settings: 264 h
# [26] = tested on: Gossypium hirsutum; experiment: as §1; type: organism-based; settings: in vivo, other
# [27] = tested on: Gossypium hirsutum; experiment: as §4; type: organism-based; settings: in vivo, other, 264 h
# [28] = tested on: Zea mays; experiment: Post-emergence phytotoxicity against Zea mays (maize) assessed as mortality at 6.3 g a.i/10 a applied 11 days after germination as foliar spray; type: organism-based; settings: in vivo, other, 264 h
# [29] = tested on: Xanthium strumarium; experiment: Post-emergence herbicidal activity against Xanthium strumarium (cocklebur) assessed as mortality at 1.6 g a.i/10 a applied 11 days after germination as foliar spray; type: functional; settings: 264 h
# [30] = tested on: Zea mays; experiment: as §2; type: organism-based; settings: in vivo, other
# [31] = as §3; type: organism-based; settings: in vivo, 1.6 g a.i/10 a
SMILES,Activity [1],mortality at 63 g/ha [2],mortality [5],Activity [6],mortality [7],mortality [8],mortality [9],Activity [10],Activity [11],Activity [13],Activity [14],Activity [15],mortality at 16 g/ha [16],mortality at 63 g/ha [17],Activity [18],Activity [19],Activity [20],Activity [21],Activity [22],Activity [24],also measured
COc1cc(OC)nc(Sc2cccc(OC(C)C)c2C(=O)O)n1,<50%,> 90%,< 50%,< 50%,< 50%,< 50%,< 50%,< 50%,Non-toxic,Toxic,Toxic,Toxic,< 5%,< 5%,<50%,<50%,<50%,<50%,<50%,<50%,mortality at 16 g/ha [3]: > 90%; mortality at 63 g/ha [4]: > 90%; mortality at 264 h [12]: > 90%; Activity [23]: <50%
CCCOc1cccc(Sc2nc(OC)cc(OC)n2)c1C(=O)O,<50%,< 5%,–,Non-toxic,< 50%,< 50%,< 50%,< 50%,Non-toxic,Toxic,Non-toxic,Non-toxic,< 5%,< 5%,<50%,<50%,<50%,<50%,<50%,<50%,mortality at 16 g/ha [25]: < 5%; Activity [26]: Non-toxic; Activity [27]: Toxic; Activity [28]: Toxic; mortality at 16 g/ha [29]: < 5%
COc1cc(OC)nc(Sc2cccc(C(C)=O)c2C(=O)O)n1,–,–,< 50%,< 50%,< 50%,< 50%,–,Toxic,–,Non-toxic,Non-toxic,Toxic,–,> 90%,<50%,<50%,<50%,<50%,–,–,Activity [30]: Non-toxic; mortality at 264 h [31]: < 5%; Activity [27]: Non-toxic
